Earlier results, collected in patent US20160101176A1, “POLYMERIC HYDROGEL PHARMACEUTICAL COMPOSITIONS WITH ON-DEMAND RELEASE OF A DRUG IN RESPONSE TO A ELECTRICAL STIMULUS” (UNIVERSITY OF THE WITWATERSRAND, JOHANNESBURG, priority 2013, published 2016).

Key:
plasma proteins = details: Raveendran et al., 1992
[1] = rat's cardio-vascular system; Elahi et al., 2009

For COc1ccc2c(c1)c(CC(=O)O)c(C)n2C(=O)c1ccc(Cl)cc1 [indomethacin], the protein binding (plasma proteins) is given as “highly protein bound” and the t1/2 [1] is given as 7 to 10 h.
